From patent US20070232615A1, “Chemical Compounds” (priority 2004, published 2007)

The molecules below were run on HIV (assay: HOS HIV infectivity assay (Table 2, strain not given)). Settings: Human immunodeficiency virus 1, read-out: Activity Level.
Format: cell-based
Procedure: HOS HIV-1 Infectivity Assay
Compounds were profiled against two HIV-1 viruses, the M-tropic (CCR5 utilizing) Ba-L strain and the T-tropic (CXCR4 utilizing) IIIB strain. Both viruses were propagated in human peripheral blood lymphocytes. Compounds were tested for there ability to block infection of the HOS cell line (expressing hCXCR4/hCCR5/hCD4/pHIV-LTR-luciferase) by either HIV-1 Ba-L or HIV-1 IIIB. Compound cytotoxicity was also examined in the absence of virus addition.
HOS HIV-1 Infectivity Assay Format
HOS cells (expressing hCXCR4/hCCR5/hCD4/pHIV-LTR-luciferase) were harvested and diluted in Dulbeccos modified Eagles media supplemented with 2% FCS and non-essential amino acid to a concentration of 60,000 cells/ml. The cells were plated into 96-well plates (100 ul per well) and the plates were placed in a tissue culture incubator (37° C.; 5% CO2/95% air) for a period of 24 h.
Subsequently, 50 ul of the desired drug solution (4 times the final concentration) was added to each well and the plates were returned to the tissue culture incubator (37° C.; 5% CO2/95% air) for 1 h. Following this incubation 50 ul of diluted virus was added to each well (approximately 2 million RLU per well of virus). The plates were returned to the tissue culture incubator (37° C.; 5% CO2/95% air) and were incubated for a further 96 h.
Following this incubation the endpoint for the virally infected cultures was quantified following addition of Steady-Glo Luciferase assay system reagent (Promega, Madison, Wis.). Cell viability or non-infected cultures was measured using a CellTiter-Glo luminescent cell viability assay system (Promega, Madison, Wis.). All luminescent readouts are performed on a Topcount luminescence detector (Packard, Meridien, Conn.).

Structure (SMILES) | IC50
CN(C)CCN1CCN(c2cccc3nc(CN(C)C4CCCc5cccnc54)cn23)CC1 (centres unmarked) [Example 32, N-[(5-{4-[2-(Dimethylamino)ethyl]-1-piperazinyl}imidazo[1,2-a]pyridin-2-yl)methyl]-N-methyl-5,6,7,8-tetrahydro-8-quinolinamine] | 100 to 500 nM
CN(Cc1cn2c(N)cccc2n1)C1CCCc2cccnc21 (centres unmarked) [Example 43, N-[(5-Aminoimidazo[1,2-a]pyridin-2-yl)methyl]-N-methyl-5,6,7,8-tetrahydro-8-quinolinamine] | 100 to 500 nM
COCCN1CCN(c2cccc3nc(CN(C)C4CCCc5cccnc54)cn23)CC1 (centres unmarked) [Example 33, N-Methyl-N-[(5-{4-[2-(methyloxy)ethyl]-1-piperazinyl}imidazo[1,2-a]pyridin-2-yl)methyl]-5,6,7,8-tetrahydro-8-quinolinamine] | < 100 nM
CN1CCN(c2cccc3nc(CN(CCCO)[C@H]4CCCc5cccnc54)cn23)CC1 [Example 79, 3-{{[5-(4-Methyl-1-piperazinyl)imidazo[1,2-a]pyridin-2-yl]methyl}[(8S)-5,6,7,8-tetrahydro-8-quinolinyl]amino}-1-propanol] | < 100 nM
CN(Cc1cn2c(N3CCCNCC3)cccc2n1)C1CCCc2cccnc21 (centres unmarked) [Example 30, N-{[5-(Hexahydro-1H-1,4-diazepin-1-yl)imidazo[1,2-a]pyridin-2-yl]methyl}-N-methyl-5,6,7,8-tetrahydro-8-quinolinamine] | < 100 nM
CN1CCN(c2cccc3nc(CN(C)C4CCCCc5cccnc54)cn23)CC1 (centres unmarked) [Example 47, N-Methyl-N-{[5-(4-methyl-1-piperazinyl)imidazo[1,2-a]pyridin-2-yl]methyl}-6,7,8,9-tetrahydro-5H-cyclohepta[b]pyridin-9-amine] | < 100 nM
CN(Cc1cn2c(OCCN3CCCC3)cccc2n1)[C@H]1CCCc2cccnc21 [Example 105, (8S)—N-Methyl-N-[(5-{[2-(1-pyrrolidinyl)ethyl]oxy}imidazo[1,2-a]pyridin-2-yl)methyl]-5,6,7,8-tetrahydro-8-quinolinamine] | < 100 nM
CN1CCC(N(C)c2cccc3nc(CN(C)[C@H]4CCCc5cccnc54)cn23)C1 (stereo partly drawn) [Example 86, (8S)—N-Methyl-N-({5-[methyl(1-methyl-3-pyrrolidinyl)amino]imidazo[1,2-a]pyridin-2-yl}methyl)-5,6,7,8-tetrahydro-8-quinolinamine] | < 100 nM
CN1CCN(c2cccc3nc(CN(Cc4ccccc4Br)[C@H]4CCCc5cccnc54)cn23)CC1 [Example 63, (8S)—N-[(2-Bromophenyl)methyl]-N-{[5-(4-methyl-1-piperazinyl)imidazo[1,2-a]pyridin-2-yl]methyl}-5,6,7,8-tetrahydro-8-quinolinamine] | 100 to 500 nM
CN(Cc1cn2c(NC(=O)c3cccnc3)cccc2n1)C1CCCc2cccnc21 (centres unmarked) [Example 44, N-(2-{[Methyl(5,6,7,8-tetrahydro-8-quinolinyl)amino]methyl}imidazo[1,2-a]pyridin-5-yl)-3-pyridinecarboxamide] | 500 to 10000 nM
COc1ccc([C@H](C)N(Cc2cn3c(N4CCN(C)CC4)cccc3n2)[C@H]2CCCc3cccnc32)cc1 [Example 48, (8S)—N-{(1S)-1-[4-(Methyloxy)phenyl]ethyl}-N-{[5-(4-methyl-1-piperazinyl)imidazo[1,2-a]pyridin-2-yl]methyl}-5,6,7,8-tetrahydro-8-quinolinamine] | 100 to 500 nM
CC(C)N1CCN(c2cccc3nc(CN(C)[C@H]4CCCc5cccnc54)cn23)CC1 [Example 89, (8S)—N-Methyl-N-({5-[4-(1-methylethyl)-1-piperazinyl]imidazo[1,2-a]pyridin-2-yl}methyl)-5,6,7,8-tetrahydro-8-quinolinamine] | < 100 nM
CN(Cc1cn2c(N3CC[C@@H](N)C3)cccc2n1)[C@H]1CCCc2cccnc21 [Example 92, (8S)—N-({5-[(3R)-3-Amino-1-pyrrolidinyl]imidazo[1,2-a]pyridin-2-yl}methyl)-N-methyl-5,6,7,8-tetrahydro-8-quinolinamine] | < 100 nM
CN(Cc1cn2c(NCCN3CCCC3)cccc2n1)[C@H]1CCCc2cccnc21 [Example 102, (8S)—N-Methyl-N-[(5-{[2-(1-pyrrolidinyl)ethyl]amino}imidazo[1,2-a]pyridin-2-yl)methyl]-5,6,7,8-tetrahydro-8-quinolinamine] | < 100 nM
CC(C)N(Cc1cn2c(N3CCNCC3)cccc2n1)C1CCCc2cccnc21 (centres unmarked) [Example 21, N-(1-Methylethyl)-N-{[5-(1-piperazinyl)imidazo[1,2-a]pyridin-2-yl]methyl}-5,6,7,8-tetrahydro-8-quinolinamine] | < 100 nM
CN(C)Cc1ccccc1-c1cccc2nc(CN(C)C3CCCc4cccnc43)cn12 (centres unmarked) [Example 42, N-[(5-{2-[(Dimethylamino)methyl]phenyl}imidazo[1,2-a]pyridin-2-yl)methyl]-N-methyl-5,6,7,8-tetrahydro-8-quinolinamine] | 100 to 500 nM
CN1CCCN(c2cccc3nc(CN(C)C4CCCc5cccnc54)cn23)CC1 (centres unmarked) [Example 31, N-Methyl-N-{[5-(4-methylhexahydro-1H-1,4-diazepin-1-yl)imidazo[1,2-a]pyridin-2-yl]methyl}-5,6,7,8-tetrahydro-8-quinolinamine] | < 100 nM

The remaining lines, values ahead:

IC50 | Structure (SMILES)
< 100 nM | CN(C)CCN(C)c1cccc2nc(CN(C)[C@H]3CCCc4cccnc43)cn12 [Example 81, N,N,N′-Trimethyl-N′-[2-({methyl[(8S)-5,6,7,8-tetrahydro-8-quinolinyl]amino}methyl)imidazo[1,2-a]pyridin-5-yl]-1,2-ethanediamine]
< 100 nM | CN(Cc1cn2c(N3CCC(N)CC3)cccc2n1)C1CCCc2cccnc21 (centres unmarked) [Example 37, N-{[5-(4-Amino-1-piperidinyl)imidazo[1,2-a]pyridin-2-yl]methyl}-N-methyl-5,6,7,8-tetrahydro-8-quinolinamine]
< 100 nM | CN(Cc1cn2c(NCCN3CCCCC3)cccc2n1)[C@H]1CCCc2cccnc21 [Example 103, (8S)—N-Methyl-N-[(5-{[2-(1-piperidinyl)ethyl]amino}imidazo[1,2-a]pyridin-2-yl)methyl]-5,6,7,8-tetrahydro-8-quinolinamine]
< 100 nM | CN1CCN(c2cccc3nc(CN(Cc4cccc(F)c4)[C@H]4CCCc5cccnc54)cn23)CC1 [Example 61, (8S)—N-[(3-Fluorophenyl)methyl]-N-{[5-(4-methyl-1-piperazinyl)imidazo[1,2-a]pyridin-2-yl]methyl}-5,6,7,8-tetrahydro-8-quinolinamine]
< 100 nM | CC(c1cn2c(N3CCN(C)CC3)cccc2n1)N(C)[C@H]1CCCc2cccnc21 (stereo partly drawn) [Example 100, (8S)—N-Methyl-N-{1-[5-(4-methyl-1-piperazinyl)imidazo[1,2-a]pyridin-2-yl]ethyl}-5,6,7,8-tetrahydro-8-quinolinamine]
< 100 nM | CN1CCN(c2cccc3nc(CN(C)[C@H]4CCCc5cccnc54)cn23)CC1 [Example 50, (8S)—N-Methyl-N-{[5-(4-methyl-1-piperazinyl)imidazo[1,2-a]pyridin-2-yl]methyl}-5,6,7,8-tetrahydro-8-quinolinamine]
< 100 nM | CC(C)Cc1ccc(CN(Cc2cn3c(N4CCN(C)CC4)cccc3n2)[C@H]2CCCc3cccnc32)cc1 [Example 77, (8S)—N-{[5-(4-Methyl-1-piperazinyl)imidazo[1,2-a]pyridin-2-yl]methyl}-N-{[4-(2-methylpropyl)phenyl]methyl}-5,6,7,8-tetrahydro-8-quinolinamine]
< 100 nM | COc1ccc(CN(Cc2cn3c(N4CCN(C)CC4)cccc3n2)[C@H]2CCCc3cccnc32)cc1 [Example 74, (8S)—N-{[4-(Methyloxy)phenyl]methyl}-N-{[5-(4-methyl-1-piperazinyl)imidazo[1,2-a]pyridin-2-yl]methyl}-5,6,7,8-tetrahydro-8-quinolinamine]
< 100 nM | CN1CCN(c2cccc3nc(CN(Cc4ccccc4F)[C@H]4CCCc5cccnc54)cn23)CC1 [Example 60, (8S)—N-[(2-Fluorophenyl)methyl]-N-{[5-(4-methyl-1-piperazinyl)imidazo[1,2-a]pyridin-2-yl]methyl}-5,6,7,8-tetrahydro-8-quinolinamine]
< 100 nM | CC(C)c1ccc(CN(Cc2cn3c(N4CCN(C)CC4)cccc3n2)[C@H]2CCCc3cccnc32)cc1 [Example 75, (8S)—N-{[4-(1-Methylethyl)phenyl]methyl}-N-{[5-(4-methyl-1-piperazinyl)imidazo[1,2-a]pyridin-2-yl]methyl}-5,6,7,8-tetrahydro-8-quinolinamine]
< 100 nM | CCN1CCN(c2cccc3nc(CN(C)[C@H]4CCCc5cccnc54)cn23)CC1 [Example 88, (8S)—N-{[5-(4-Ethyl-1-piperazinyl)imidazo[1,2-a]pyridin-2-yl]methyl}-N-methyl-5,6,7,8-tetrahydro-8-quinolinamine]
< 100 nM | CN(Cc1cn2c(N3CCN4CCCC4C3)cccc2n1)[C@H]1CCCc2cccnc21 (stereo partly drawn) [Example 82, (8S)—N-{[5-(Hexahydropyrrolo[1,2-a]pyrazin-2(1H)-yl)imidazo[1,2-a]pyridin-2-yl]methyl}-N-methyl-5,6,7,8-tetrahydro-8-quinolinamine]
